For one experiment, the system named is MOLM-13 cells. Description: Cell viability assay (CellTiter-Glo) in MOLM-13 cells, alone or with gilteritinib. Type of experiment: cell-based. To be noted: Homo sapiens, MOLM-13 cells, three days, CellTiter-Glo.
The test system of another experiment is MV4;11 cells. Briefly: Cell viability assay (CellTiter-Glo) in MV4;11 cells, alone or with gilteritinib. To be noted: Homo sapiens, MV4;11 cells, three days, CellTiter-Glo, read-out: MV4. In kind it is cell-based.
Where [1] appears, read: 72 h, compound alone (without gilteritinib), read-out: MOLM-13 IC50.
[2] abbreviates: 72 h, compound with gilteritinib 20 nM, read-out: MOLM-13 IC50 gilteritinib.
[3] abbreviates: 72 h, compound alone (without gilteritinib), 11 IC50.
Where [4] appears, read: 72 h, compound with gilteritinib 10 nM, 11 IC50 gilteritinib.
The mark [5] stands for this setting: MOLM-13, 72 h, compound alone (without gilteritinib), read-out: MOLM-13 IC50.
Setting [6] is: MOLM-13, 72 h, compound with gilteritinib 20 nM, read-out: MOLM-13 IC50 gilteritinib.
The mark [7] stands for this setting: MV4-11, 72 h, compound alone (without gilteritinib), 11 IC50.
Where [8] appears, read: MV4-11, 72 h, compound with gilteritinib 10 nM, 11 IC50 gilteritinib.

Like-named read-outs stand apart in the source and are kept apart here. Bounds are passed on as bounds.

The results in this text go back to patent US20240050428A1 (Cullgen (Shanghai), Inc., priority 2020, published 2024).

Consider `O=C1CCC(N2C(=O)c3ccc(NC[C@H]4C[C@H](n5cc(-c6ccccc6)c(C6CC6)n5)C4)cc3C2=O)C(=O)N1` (stereo partly drawn) [GS-598, 5-(((trans-3-(3-Cyclopropyl-4-phenyl-1H-pyrazol-1-yl)cyclobutyl)methyl)amino)-2-(2,6-dioxopiperidin-3-yl)isoindoline-1,3-dione], for which the IC50 with MOLM-13 cells (setting [1]) was 100 to 1000 nM; in the experiment with MOLM-13 cells (setting [2]), 10 to 100 nM; with MV4;11 cells (setting [3]), 10 to 100 nM; with MV4;11 cells (setting [4]) it was under 10 nM.

With `O=C1CCC(N2C(=O)c3ccc(NC[C@H]4C[C@H](n5cc(-c6ncccn6)c(C6CC6)n5)C4)cc3C2=O)C(=O)N1` (stereo partly drawn) [GS-599, 5-(((trans-3-(3-Cyclopropyl-4-(pyrimidin-2-yl)-1H-pyrazol-1-yl)cyclobutyl)methyl)amino)-2-(2,6-dioxopiperidin-3-yl)isoindoline-1,3-dione], the IC50 in the experiment on MOLM-13 cells (setting [5]) was 100 to 1000 nM; in the experiment on MOLM-13 cells (setting [6]) it was 100 to 1000 nM; with MV4;11 cells (setting [7]), 100 to 1000 nM; in the experiment on MV4;11 cells (setting [8]), 10 to 100 nM.

For the compound `CN1C(=O)CCC(N2C(=O)c3ccc(NCCC[C@H]4C[C@H](n5cc(-c6cnc7ccccc7n6)c(C6CC6)n5)C4)cc3C2=O)C1=O` (stereo partly drawn) [GS-600, 5-((3-(trans-3-(3-Cyclopropyl-4-(quinoxalin-2-yl)-1H-pyrazol-1-yl)cyclobutyl)propyl)amino)-2-(1-methyl-2,6-dioxopiperidin-3-yl)isoindoline-1,3-dione], the IC50 in the experiment with MOLM-13 cells (setting [5]), in the experiment on MOLM-13 cells (setting [6]), with MV4;11 cells (setting [7]) and in the experiment with MV4;11 cells (setting [8]) was over 1000 nM each time.

For `O=C1CCC(N2C(=O)c3ccc(NC[C@H]4C[C@H](n5cc(-c6ccncn6)c(C6CC6)n5)C4)cc3C2=O)C(=O)N1` (stereo partly drawn) [GS-601, 5-(((trans-3-(3-Cyclopropyl-4-(pyrimidin-4-yl)-1H-pyrazol-1-yl)cyclobutyl)methyl)amino)-2-(2,6-dioxopiperidin-3-yl)isoindoline-1,3-dione], the IC50 with MOLM-13 cells (setting [1]) is over 1000 nM; in the experiment with MOLM-13 cells (setting [2]) it was 10 to 100 nM; in the experiment on MV4;11 cells (setting [3]), 10 to 100 nM; with MV4;11 cells (setting [4]), over 1000 nM.

As for `Cc1cccnc1-c1cnn([C@H]2C[C@H](CCCNc3ccc4c(c3)C(=O)N(C3CCC(=O)NC3=O)C4=O)C2)c1` (stereo partly drawn) [GS-602, 2-(2,6-Dioxopiperidin-3-yl)-5-((3-(trans-3-(4-(3-methylpyridin-2-yl)-1H-pyrazol-1-yl)cyclobutyl)propyl)amino)isoindoline-1,3-dione], the IC50 with MOLM-13 cells (setting [5]) is 100 to 1000 nM; in the experiment with MOLM-13 cells (setting [6]), 10 to 100 nM; in the experiment with MV4;11 cells (setting [7]), 10 to 100 nM; in the experiment with MV4;11 cells (setting [8]), under 10 nM.

On to `Cc1ccnc(-c2cnn([C@H]3C[C@H](CCCNc4ccc5c(c4)C(=O)N(C4CCC(=O)NC4=O)C5=O)C3)c2)c1` (stereo partly drawn) [GS-603, 2-(2,6-Dioxopiperidin-3-yl)-5-((3-(trans-3-(4-(4-methylpyridin-2-yl)-1H-pyrazol-1-yl)cyclobutyl)propyl)amino)isoindoline-1,3-dione], for which the IC50 in the experiment with MOLM-13 cells (setting [5]) was 100 to 1000 nM; in the experiment on MOLM-13 cells (setting [6]) it was 10 to 100 nM; in the experiment with MV4;11 cells (setting [7]) it was 10 to 100 nM; with MV4;11 cells (setting [8]) it was under 10 nM.

`O=C1CCC(N2C(=O)c3ccc(NC[C@H]4C[C@H](n5cc(-c6ncccc6N6CCNCC6)c(C6CC6)n5)C4)cc3C2=O)C(=O)N1` (stereo partly drawn) [GS-604, 5-(((trans-3-(3-cyclopropyl-4-(3-(piperazin-1-yl)pyridin-2-yl)-1H-pyrazol-1-yl)cyclobutyl)methyl)amino)-2-(2,6-dioxopiperidin-3-yl)isoindoline-1,3-dione]: the IC50 in the experiment with MOLM-13 cells (setting [5]) is 10 to 100 nM; with MOLM-13 cells (setting [6]) it was under 10 nM; with MV4;11 cells (setting [7]), 10 to 100 nM; in the experiment with MV4;11 cells (setting [8]) it was under 10 nM.

As to `O=C1CCC(N2C(=O)c3ccc(NC[C@H]4C[C@H](n5cc(-c6cccc(C7CNC7)n6)c(C6CC6)n5)C4)cc3C2=O)C(=O)N1` (stereo partly drawn) [GS-605, 5-(((trans-3-(4-(6-(Azetidin-3-yl)pyridin-2-yl)-3-cyclopropyl-1H-pyrazol-1-yl)cyclobutyl)methyl)amino)-2-(2,6-dioxopiperidin-3-yl)isoindoline-1,3-dione], the IC50 in the experiment on MOLM-13 cells (setting [5]), with MOLM-13 cells (setting [6]), in the experiment with MV4;11 cells (setting [7]) and with MV4;11 cells (setting [8]) was over 1000 nM in each case.

`CN(C)c1ccnc(-c2cn([C@H]3C[C@H](CNc4ccc5c(c4)C(=O)N(C4CCC(=O)NC4=O)C5=O)C3)nc2C2CC2)c1` (stereo partly drawn) [GS-606, 5-(((trans-3-(3-Cyclopropyl-4-(4-(dimethylamino)pyridin-2-yl)-1H-pyrazol-1-yl)cyclobutyl)methyl)amino)-2-(2,6-dioxopiperidin-3-yl)isoindoline-1,3-dione]: the IC50 in the experiment with MOLM-13 cells (setting [5]), with MOLM-13 cells (setting [6]), in the experiment with MV4;11 cells (setting [7]) and in the experiment with MV4;11 cells (setting [8]) was over 1000 nM throughout.

On to `O=C1CCC(N2C(=O)c3ccc(NC[C@H]4C[C@H](n5cc(-c6cc(N7CCNCC7)ccn6)c(C6CC6)n5)C4)cc3C2=O)C(=O)N1` (stereo partly drawn) [GS-607, 5-(((trans-3-(3-Cyclopropyl-4-(4-(piperazin-1-yl)pyridin-2-yl)-1H-pyrazol-1-yl)cyclobutyl)methyl)amino)-2-(2,6-dioxopiperidin-3-yl)isoindoline-1,3-dione], for which the IC50 with MOLM-13 cells (setting [5]), in the experiment on MOLM-13 cells (setting [6]), in the experiment on MV4;11 cells (setting [7]) and with MV4;11 cells (setting [8]) was over 1000 nM throughout.

As to `CN1CCN(c2ccnc(-c3cn([C@H]4C[C@H](CNc5ccc6c(c5)C(=O)N(C5CCC(=O)NC5=O)C6=O)C4)nc3C3CC3)c2)CC1` (stereo partly drawn) [GS-608, 5-(((trans-3-(3-Cyclopropyl-4-(4-(4-methylpiperazin-1-yl)pyridin-2-yl)-1H-pyrazol-1-yl)cyclobutyl)methyl)amino)-2-(2,6-dioxopiperidin-3-yl)isoindoline-1,3-dione], the IC50 in the experiment with MOLM-13 cells (setting [5]), in the experiment on MOLM-13 cells (setting [6]), in the experiment with MV4;11 cells (setting [7]) and in the experiment on MV4;11 cells (setting [8]) was over 1000 nM throughout.

For `Cc1nc(-c2cn([C@H]3C[C@H](CNc4ccc5c(c4)C(=O)N(C4CCC(=O)NC4=O)C5=O)C3)nc2C2CC2)ccc1Cl` (stereo partly drawn) [GS-609, 5-(((trans-3-(4-(5-Chloro-6-methylpyridin-2-yl)-3-cyclopropyl-1H-pyrazol-1-yl)cyclobutyl)methyl)amino)-2-(2,6-dioxopiperidin-3-yl)isoindoline-1,3-dione], the IC50 was 10 to 100 nM in the experiment with MOLM-13 cells (setting [5]), under 10 nM with MOLM-13 cells (setting [6]), 10 to 100 nM in the experiment with MV4;11 cells (setting [7]) and under 10 nM with MV4;11 cells (setting [8]).

Take `O=C1CCC(N2C(=O)c3ccc(NC[C@H]4C[C@H](n5cc(-c6cnc7c(N8CC(O)C8)cccc7n6)c(C6CC6)n5)C4)cc3C2=O)C(=O)N1` (some centres unmarked) [GS-610]: the IC50 in the experiment with MOLM-13 cells (setting [5]), in the experiment on MOLM-13 cells (setting [6]), in the experiment with MV4;11 cells (setting [7]) and with MV4;11 cells (setting [8]) was under 10 nM throughout.

With `Cn1ncc2c(-c3cn([C@H]4C[C@H](CNc5ccc6c(c5)C(=O)N(C5CCC(=O)NC5=O)C6=O)C4)nc3C3CC3)nccc21` (stereo partly drawn) [GS-611, 5-(((trans-3-(3-Cyclopropyl-4-(1-methyl-1H-pyrazolo[4,3-c]pyridin-4-yl)-1H-pyrazol-1-yl)cyclobutyl)methyl)amino)-2-(2,6-dioxopiperidin-3-yl)isoindoline-1,3-dione], the IC50 with MOLM-13 cells (setting [5]), in the experiment with MOLM-13 cells (setting [6]), with MV4;11 cells (setting [7]) and in the experiment on MV4;11 cells (setting [8]) was under 10 nM throughout.
